Results as given in ChEMBL document CHEMBL3044713, “Synthesis, characterization, and pharmacological evaluation of new GABA analogs as potent anticonvulsant agents” (Med Chem Res, 2012).
Active and inactive are the calls of the source. The calls are words filed in the database; no cut-off is given here.

How the values were obtained:
Mus musculus [1] = assay: Anticonvulsant activity in ip dosed Mus musculus albino (mouse) assessed as protection against subcutaneous strychnine-induced seizures after 0.5 hr; format: functional; details: read-out: MED
Mus musculus [2] = assay: Anticonvulsant activity in Mus musculus albino (mouse) assessed as protection against subcutaneous strychnine-induced seizures at 300 mg/kg, ip after 4 hr; format: functional, organism-based; set-up: dose 300 mg/kg
Mus musculus [3] = assay: Anticonvulsant activity in Mus musculus albino (mouse) assessed as protection against maximal electroshock-induced seizures at 300 mg/kg, ip after 0.5 hr; format: functional, organism-based; set-up: dose 300 mg/kg
Mus musculus [4] = assay: Neurotoxicity in Mus musculus albino (mouse) assessed as motor impairment at 300 mg/kg, ip after 4 hr by rotorod test; format: toxicity, organism-based; set-up: dose 300 mg/kg, route intraperitoneal; details: in vivo
Mus musculus [5] = assay: Anticonvulsant activity in Mus musculus albino (mouse) assessed as protection against subcutaneous strychnine-induced seizures at 300 mg/kg, ip after 0.5 hr; format: functional, organism-based; set-up: dose 300 mg/kg
Mus musculus [6] = assay: Anticonvulsant activity in Mus musculus albino (mouse) assessed as protection against subcutaneous pentylenetetrazole-induced seizures at 300 mg/kg, ip after 4 hr; format: functional, organism-based; set-up: dose 300 mg/kg
Mus musculus [7] = assay: Anticonvulsant activity in ip dosed Mus musculus albino (mouse) assessed as protection against ip picrotoxin-induced seizures after 0.5 hr; format: functional; details: read-out: MED
Mus musculus [8] = assay: Neurotoxicity in Mus musculus albino (mouse) assessed as motor impairment at 300 mg/kg, ip after 0.5 hr by rotorod test; format: toxicity, organism-based; set-up: dose 300 mg/kg, route intraperitoneal; details: in vivo
Mus musculus [9] = assay: Anticonvulsant activity in Mus musculus albino (mouse) assessed as protection against subcutaneous pentylenetetrazole-induced seizures at 300 mg/kg, ip after 0.5 hr; format: functional, organism-based; set-up: dose 300 mg/kg
Mus musculus [10] = assay: Anticonvulsant activity in Mus musculus albino (mouse) assessed as protection against ip picrotoxin-induced seizures at 300 mg/kg, ip after 4 hr; format: functional, organism-based; set-up: dose 300 mg/kg
Mus musculus [11] = assay: Anticonvulsant activity in Mus musculus albino (mouse) assessed as protection against ip picrotoxin-induced seizures at 300 mg/kg, ip after 0.5 hr; format: functional, organism-based; set-up: dose 300 mg/kg
[12] = Neurotoxicity in ip dosed Mus musculus albino (mouse) assessed as motor impairment after 4 hr by rotorod test; format: toxicity, organism-based; details: in vivo
[13] = Neurotoxicity in ip dosed Mus musculus albino (mouse) assessed as motor impairment after 0.5 hr by rotorod test; format: toxicity, organism-based; details: in vivo
Mus musculus [14] = assay: Anticonvulsant activity in ip dosed Mus musculus albino (mouse) assessed as protection against subcutaneous pentylenetetrazole-induced seizures after 4 hr; format: functional; details: read-out: MED
Mus musculus [15] = assay: Anticonvulsant activity in ip dosed Mus musculus albino (mouse) assessed as protection against subcutaneous pentylenetetrazole-induced seizures after 0.5 hr; format: functional; details: read-out: MED
Mus musculus [16] = assay: Anticonvulsant activity in ip dosed Mus musculus albino (mouse) assessed as protection against subcutaneous strychnine-induced seizures after 4 hr; format: functional; details: read-out: MED
Mus musculus [17] = assay: Anticonvulsant activity in ip dosed Mus musculus albino (mouse) assessed as protection against ip picrotoxin-induced seizures after 4 hr; format: functional; details: read-out: MED

O=C(CCCN1C(=O)c2ccccc2C1=O)Nc1ccc(Cl)cc1Cl
minimal effective dose (Mus musculus [1]): 300 mg/kg
Activity (Mus musculus [2]): inactive
Activity (Mus musculus [3]): inactive
Activity (Mus musculus [4]): Non-toxic
Activity (Mus musculus [5]): inactive
Activity (Mus musculus [6]): inactive
minimal effective dose (Mus musculus [7]): 300 mg/kg
Activity (Mus musculus [8]): Non-toxic
Activity (Mus musculus [9]): inactive
Activity (Mus musculus [10]): inactive

O=C1NC(=O)C(c2ccccc2)(c2ccccc2)N1
Activity (Mus musculus [2]): inactive
Activity (Mus musculus [3]): inactive
Activity (Mus musculus [11]): inactive
Activity (Mus musculus [5]): inactive
Activity (Mus musculus [6]): inactive
Activity (Mus musculus [9]): inactive
Activity (Mus musculus [10]): inactive

O=C(CCCN1C(=O)c2ccccc2C1=O)Nc1ccc([N+](=O)[O-])cc1
Activity (Mus musculus [2]): inactive
Activity (Mus musculus [3]): inactive
MTD at 4 h [12]: 100 mg/kg
MTD at 0.5 h [13]: 100 mg/kg
Activity (Mus musculus [11]): inactive
Activity (Mus musculus [5]): inactive
Activity (Mus musculus [6]): inactive
Activity (Mus musculus [9]): inactive
Activity (Mus musculus [10]): inactive

O=C(CCCN1C(=O)c2ccccc2C1=O)Nc1ccc(F)cc1F
minimal effective dose (Mus musculus [1]): 100 mg/kg
Activity (Mus musculus [2]): inactive
Activity (Mus musculus [3]): inactive
Activity (Mus musculus [4]): Non-toxic
Activity (Mus musculus [6]): inactive
minimal effective dose (Mus musculus [7]): 300 mg/kg
Activity (Mus musculus [8]): Non-toxic
Activity (Mus musculus [9]): inactive
Activity (Mus musculus [10]): inactive

CCc1ccc(NC(=O)CCCN2C(=O)c3ccccc3C2=O)cc1
minimal effective dose (Mus musculus [14]): 300 mg/kg
minimal effective dose (Mus musculus [15]): 100 mg/kg
Activity (Mus musculus [3]): inactive
Activity (Mus musculus [4]): Non-toxic
Activity (Mus musculus [5]): inactive
minimal effective dose (Mus musculus [7]): 100 mg/kg
Activity (Mus musculus [8]): Non-toxic
minimal effective dose (Mus musculus [16]): 100 mg/kg
minimal effective dose (Mus musculus [17]): 100 mg/kg

Cc1ccc(NC(=O)CCCN2C(=O)c3ccccc3C2=O)cc1
minimal effective dose (Mus musculus [14]): 100 mg/kg
Activity (Mus musculus [2]): inactive
Activity (Mus musculus [3]): inactive
Activity (Mus musculus [4]): Non-toxic
Activity (Mus musculus [5]): inactive
minimal effective dose (Mus musculus [7]): 300 mg/kg
Activity (Mus musculus [8]): Non-toxic
Activity (Mus musculus [9]): inactive
Activity (Mus musculus [10]): inactive

O=C(CCCN1C(=O)c2ccccc2C1=O)Nc1ccc(Br)cc1
Activity (Mus musculus [2]): inactive
minimal effective dose (Mus musculus [15]): 30 mg/kg
Activity (Mus musculus [3]): inactive
MTD at 0.5 h [13]: 100 mg/kg
Activity (Mus musculus [4]): Non-toxic
Activity (Mus musculus [5]): inactive
Activity (Mus musculus [6]): inactive
minimal effective dose (Mus musculus [7]): 100 mg/kg
minimal effective dose (Mus musculus [17]): 300 mg/kg
